Reference: publication PMC12435834, “The GLYT1 inhibitor bitopertin mitigates erythroid PPIX production and liver disease in erythroid protoporphyria” (The Journal of Clinical Investigation, 2025)

Tests used:
GLYT1 [1] = target: T1, GLYT1 (Rattus norvegicus, UniProt P28572); assay: ex vivo 3H-glycine uptake by peripheral blood cells of orally dosed rats vs free plasma concentration
T1 construct: gene Slc6a9
T1 sequence (P28572 1-638): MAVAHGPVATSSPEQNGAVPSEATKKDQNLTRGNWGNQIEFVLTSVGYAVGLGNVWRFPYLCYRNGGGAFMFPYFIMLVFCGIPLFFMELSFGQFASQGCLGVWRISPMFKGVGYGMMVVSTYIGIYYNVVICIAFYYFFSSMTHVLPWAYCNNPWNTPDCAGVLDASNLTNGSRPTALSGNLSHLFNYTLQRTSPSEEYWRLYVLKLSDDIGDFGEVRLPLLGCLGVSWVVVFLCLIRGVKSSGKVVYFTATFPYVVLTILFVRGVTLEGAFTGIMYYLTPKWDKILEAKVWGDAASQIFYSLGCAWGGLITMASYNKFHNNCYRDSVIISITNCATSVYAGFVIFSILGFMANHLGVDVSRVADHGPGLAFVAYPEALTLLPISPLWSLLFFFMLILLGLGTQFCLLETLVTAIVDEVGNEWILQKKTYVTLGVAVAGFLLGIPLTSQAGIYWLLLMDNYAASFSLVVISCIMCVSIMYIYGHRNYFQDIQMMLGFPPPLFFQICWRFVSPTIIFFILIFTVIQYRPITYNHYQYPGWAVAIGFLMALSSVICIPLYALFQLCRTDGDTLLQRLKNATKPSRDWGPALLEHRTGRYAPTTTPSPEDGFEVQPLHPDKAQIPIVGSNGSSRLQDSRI

GLYT1 [2] = target: T2, GLYT1 (Mus musculus, UniProt P28571); assay: ex vivo 3H-glycine uptake by peripheral blood cells of orally dosed mice vs free plasma concentration
T2 construct: gene Slc6a9
T2 sequence (P28571 1-692): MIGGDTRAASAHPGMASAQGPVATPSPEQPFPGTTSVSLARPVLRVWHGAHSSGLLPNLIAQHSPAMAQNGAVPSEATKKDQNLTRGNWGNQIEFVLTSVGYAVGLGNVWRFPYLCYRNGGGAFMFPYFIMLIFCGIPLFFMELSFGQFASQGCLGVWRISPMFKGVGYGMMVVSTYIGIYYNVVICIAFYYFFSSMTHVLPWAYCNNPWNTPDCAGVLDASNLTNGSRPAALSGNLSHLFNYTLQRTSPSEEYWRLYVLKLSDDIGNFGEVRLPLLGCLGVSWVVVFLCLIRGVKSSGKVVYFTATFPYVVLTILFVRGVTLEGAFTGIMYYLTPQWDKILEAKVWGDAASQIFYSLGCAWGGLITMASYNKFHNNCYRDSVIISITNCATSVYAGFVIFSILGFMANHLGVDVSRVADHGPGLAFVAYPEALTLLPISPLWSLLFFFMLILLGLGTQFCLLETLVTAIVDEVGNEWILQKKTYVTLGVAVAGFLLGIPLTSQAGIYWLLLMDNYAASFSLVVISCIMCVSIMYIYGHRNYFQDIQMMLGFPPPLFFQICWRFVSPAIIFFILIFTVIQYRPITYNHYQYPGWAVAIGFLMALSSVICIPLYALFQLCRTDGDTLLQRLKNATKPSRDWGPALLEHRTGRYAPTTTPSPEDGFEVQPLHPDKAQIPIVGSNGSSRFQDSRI

`C[C@H](Oc1ccc(S(C)(=O)=O)cc1C(=O)N1CCN(c2ncc(C(F)(F)F)cc2F)CC1)C(F)(F)F` [bitopertin, [4-(3-fluoro-5-trifluoromethylpyridin-2-yl)piperazin-1-yl][5-methanesulfonyl-2-((S)-2,2,2-trifluoro-1-methylethoxy)phenyl]methanone] showed an EC50 (GLYT1 [1]) of 2 nM and an EC50 (GLYT1 [2]) of 1.2 nM.
